Results: PubChem BioAssay (NCI)
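A five-concentration, 48-hour dose response in 96-well plates underlies each endpoint, interpolated linearly between surrounding concentrations. GI50: concentration for 50% inhibition of growth. TGI: concentration producing complete growth inhibition.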

What was measured:
Assay in all cases: NCI anticancer screen, dose series, 48 h
786-0 renal = test system: 786-0 renal
A498 renal = test system: A498 renal
A549 NSCLC = test system: A549 NSCLC
ACHN renal = test system: ACHN renal
BT-549 breast = test system: BT-549 breast
CAKI-1 renal = test system: CAKI-1 renal
CCRF-CEM leukemia = test system: CCRF-CEM leukemia
COLO 205 colon = test system: COLO 205 colon
DU-145 prostate = test system: DU-145 prostate
EKVX NSCLC = test system: EKVX NSCLC
HCC-2998 colon = test system: HCC-2998 colon
HCT-116 colon = test system: HCT-116 colon
HCT-15 colon = test system: HCT-15 colon
HL-60(TB) leukemia = test system: HL-60(TB) leukemia
HOP-62 NSCLC = test system: HOP-62 NSCLC
HOP-92 NSCLC = test system: HOP-92 NSCLC
HS 578T breast = test system: HS 578T breast
HT29 colon = test system: HT29 colon
IGROV1 ovarian = test system: IGROV1 ovarian
K-562 leukemia = test system: K-562 leukemia
KM12 colon = test system: KM12 colon
LOX IMVI melanoma = test system: LOX IMVI melanoma
M14 melanoma = test system: M14 melanoma
MALME-3M melanoma = test system: MALME-3M melanoma
MCF7 breast = test system: MCF7 breast
MDA-MB-231 breast = test system: MDA-MB-231 breast
MDA-MB-435 = test system: MDA-MB-435
NCI-H226 lung = test system: NCI-H226 lung
NCI-H23 lung = test system: NCI-H23 lung
NCI-H460 lung = test system: NCI-H460 lung
NCI-H522 lung = test system: NCI-H522 lung
NCI/ADR-RES ovarian = test system: NCI/ADR-RES ovarian
OVCAR-3 ovarian = test system: OVCAR-3 ovarian
OVCAR-4 ovarian = test system: OVCAR-4 ovarian
OVCAR-5 ovarian = test system: OVCAR-5 ovarian
OVCAR-8 ovarian = test system: OVCAR-8 ovarian
PC-3 prostate = test system: PC-3 prostate
RPMI-8226 leukemia = test system: RPMI-8226 leukemia
RXF 393 renal = test system: RXF 393 renal
SF-268 CNS = test system: SF-268 CNS
SF-295 CNS = test system: SF-295 CNS
SF-539 CNS = test system: SF-539 CNS
SK-MEL-28 melanoma = test system: SK-MEL-28 melanoma
SK-MEL-5 melanoma = test system: SK-MEL-5 melanoma
SK-OV-3 ovarian = test system: SK-OV-3 ovarian
SN12C renal = test system: SN12C renal
SNB-19 CNS = test system: SNB-19 CNS
SNB-75 CNS = test system: SNB-75 CNS
SR leukemia = test system: SR leukemia
SW-620 colon = test system: SW-620 colon
T-47D breast = test system: T-47D breast
TK-10 renal = test system: TK-10 renal
U251 CNS = test system: U251 CNS
UACC-257 melanoma = test system: UACC-257 melanoma
UACC-62 melanoma = test system: UACC-62 melanoma
UO-31 renal = test system: UO-31 renal

S=C(Nc1ccc(Cl)cc1)Nc1ccc(-c2nc3ccccc3[nH]2)cc1
GI50 (786-0 renal): 10.2 µM
TGI (786-0 renal): 22.8 µM
GI50 (A498 renal): 23.6 µM
TGI (A498 renal): 55.5 µM
GI50 (A549 NSCLC): 14.3 µM
TGI (A549 NSCLC): > 54.3 µM
GI50 (ACHN renal): 7.08 µM
TGI (ACHN renal): 31.2 µM
GI50 (BT-549 breast): 19.1 µM
TGI (BT-549 breast): 53.1 µM
GI50 (CAKI-1 renal): 2.7 µM
TGI (CAKI-1 renal): 12.5 µM
GI50 (CCRF-CEM leukemia): 4.37 µM
TGI (CCRF-CEM leukemia): > 63.6 µM
GI50 (COLO 205 colon): 2.65 µM
TGI (COLO 205 colon): > 35.8 µM
GI50 (DU-145 prostate): 12.1 µM
GI50 (EKVX NSCLC): 13.3 µM
TGI (EKVX NSCLC): 52.5 µM
GI50 (HCC-2998 colon): 1.39 µM
TGI (HCC-2998 colon): 2.69 µM
GI50 (HCT-116 colon): 12.3 µM
TGI (HCT-116 colon): 24.7 µM
GI50 (HCT-15 colon): 3.82 µM
TGI (HCT-15 colon): 12.9 µM
GI50 (HL-60(TB) leukemia): 7.26 µM
TGI (HL-60(TB) leukemia): > 66 µM
GI50 (HOP-62 NSCLC): 15 µM
TGI (HOP-62 NSCLC): 30 µM
GI50 (HOP-92 NSCLC): 1.53 µM
TGI (HOP-92 NSCLC): 12.3 µM
GI50 (HS 578T breast): 6.49 µM
TGI (HS 578T breast): 60.6 µM
GI50 (HT29 colon): 4.06 µM
TGI (HT29 colon): 14.9 µM
GI50 (IGROV1 ovarian): 7.02 µM
TGI (IGROV1 ovarian): 23.7 µM
GI50 (K-562 leukemia): 5.2 µM
TGI (K-562 leukemia): 31.3 µM
GI50 (KM12 colon): 4.45 µM
TGI (KM12 colon): > 62 µM
GI50 (LOX IMVI melanoma): 5.05 µM
TGI (LOX IMVI melanoma): 11.7 µM
GI50 (M14 melanoma): 7.54 µM
TGI (M14 melanoma): > 42 µM
GI50 (MALME-3M melanoma): 7.19 µM
TGI (MALME-3M melanoma): 32.1 µM
TGI (MCF7 breast): > 41.5 µM
GI50 (MDA-MB-231 breast): 3.14 µM
TGI (MDA-MB-231 breast): 12.8 µM
GI50 (MDA-MB-435): 9.11 µM
TGI (MDA-MB-435): 26.6 µM
GI50 (NCI-H226 lung): 10 µM
TGI (NCI-H226 lung): > 46.6 µM
GI50 (NCI-H23 lung): 3.89 µM
TGI (NCI-H23 lung): 17.5 µM
GI50 (NCI-H460 lung): 9.28 µM
TGI (NCI-H460 lung): > 43.4 µM
GI50 (NCI-H522 lung): 4.63 µM
TGI (NCI-H522 lung): 13.3 µM
GI50 (NCI/ADR-RES ovarian): 17.2 µM
TGI (NCI/ADR-RES ovarian): > 57.4 µM
GI50 (OVCAR-3 ovarian): 1.33 µM
GI50 (OVCAR-4 ovarian): 15.4 µM
TGI (OVCAR-4 ovarian): > 84.3 µM
GI50 (OVCAR-5 ovarian): 20.4 µM
TGI (OVCAR-5 ovarian): 40.8 µM
GI50 (OVCAR-8 ovarian): 14.3 µM
TGI (OVCAR-8 ovarian): > 59.7 µM
GI50 (PC-3 prostate): 5.37 µM
TGI (PC-3 prostate): 35.8 µM
GI50 (RPMI-8226 leukemia): 2.23 µM
TGI (RPMI-8226 leukemia): > 21.2 µM
GI50 (RXF 393 renal): 5.86 µM
TGI (RXF 393 renal): > 20.5 µM
GI50 (SF-268 CNS): 12.2 µM
TGI (SF-268 CNS): > 68.7 µM
GI50 (SF-295 CNS): 0.757 µM
TGI (SF-295 CNS): 4.24 µM
GI50 (SF-539 CNS): 5.27 µM
TGI (SF-539 CNS): 13.5 µM
TGI (SK-MEL-28 melanoma): 35.5 µM
GI50 (SK-MEL-5 melanoma): 6.37 µM
TGI (SK-MEL-5 melanoma): 23.2 µM
GI50 (SK-OV-3 ovarian): 17.7 µM
TGI (SK-OV-3 ovarian): > 100 µM
GI50 (SN12C renal): 6.55 µM
TGI (SN12C renal): 23.7 µM
GI50 (SNB-19 CNS): 9.29 µM
TGI (SNB-19 CNS): 36.5 µM
GI50 (SNB-75 CNS): 15.7 µM
TGI (SNB-75 CNS): > 55 µM
GI50 (SR leukemia): 8.07 µM
TGI (SR leukemia): > 21.5 µM
GI50 (SW-620 colon): 22.4 µM
TGI (SW-620 colon): > 58.8 µM
GI50 (T-47D breast): 5.34 µM
TGI (T-47D breast): 32.7 µM
GI50 (TK-10 renal): 7.73 µM
TGI (TK-10 renal): 36.1 µM
GI50 (U251 CNS): 5.06 µM
TGI (U251 CNS): 18.1 µM
GI50 (UACC-257 melanoma): 14.7 µM
TGI (UACC-257 melanoma): > 52 µM
GI50 (UACC-62 melanoma): 5.15 µM
TGI (UACC-62 melanoma): 14.8 µM
GI50 (UO-31 renal): 5.86 µM
TGI (UO-31 renal): > 29.4 µM
